# Publication PMC4503722, “Novel Phenotypic Outcomes Identified for a Public Collection of Approved Drugs from a Publicly Accessible Panel of Assays” (PLoS ONE, 2015)
# Read-outs that look alike come from different tables or passages of the source.
# Assays:
# hp70S6K1 (RPS6KB1) = molecular target: T1, hp70S6K1 (RPS6KB1) (Homo sapiens, UniProt P23443); assay: Cerep LANCE kinase assay hp70S6K1 (S1 assay 31); type: biochemical; conditions: read-out: p70S6K1
# T1 construct: purchased Cerep (LANCE kinase assay platform, contract assay)
# T1 sequence (P23443 whole entry): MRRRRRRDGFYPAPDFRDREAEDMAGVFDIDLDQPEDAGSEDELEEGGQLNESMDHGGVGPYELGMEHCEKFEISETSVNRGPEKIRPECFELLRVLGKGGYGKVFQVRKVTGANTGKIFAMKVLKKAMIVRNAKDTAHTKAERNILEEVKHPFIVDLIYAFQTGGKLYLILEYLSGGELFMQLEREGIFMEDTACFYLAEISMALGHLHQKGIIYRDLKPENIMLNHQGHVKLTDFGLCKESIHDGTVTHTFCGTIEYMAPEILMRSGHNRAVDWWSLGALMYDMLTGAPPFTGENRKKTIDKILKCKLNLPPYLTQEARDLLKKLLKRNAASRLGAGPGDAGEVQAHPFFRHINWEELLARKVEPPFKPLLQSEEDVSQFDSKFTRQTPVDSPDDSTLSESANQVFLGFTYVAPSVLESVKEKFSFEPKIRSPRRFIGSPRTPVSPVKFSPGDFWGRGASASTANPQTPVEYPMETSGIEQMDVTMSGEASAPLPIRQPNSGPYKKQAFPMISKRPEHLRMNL
# HeLa cells = assay: cells; type: cell-based
# [1] = system: nuclear β-catenin in C2C12 cells; assay: cells; type: cell-based
# HCT116 = assay: cells; type: cell-based
# NCI-H716 cells = assay: cells; type: cell-based, Human
# HT-29 = assay: cells; type: cell-based; conditions: Homo sapiens, HT-29
# DLD-1 = assay: cells; type: cell-based
# hGSK3b = molecular target: T2, hGSK3b (Homo sapiens, UniProt P49841); assay: Cerep LANCE kinase assay hGSK3b (S1 assay 34); type: biochemical; conditions: read-out: GSK3b
# T2 construct: purchased Cerep (LANCE kinase assay platform, contract assay)
# T2 sequence (P49841 whole entry): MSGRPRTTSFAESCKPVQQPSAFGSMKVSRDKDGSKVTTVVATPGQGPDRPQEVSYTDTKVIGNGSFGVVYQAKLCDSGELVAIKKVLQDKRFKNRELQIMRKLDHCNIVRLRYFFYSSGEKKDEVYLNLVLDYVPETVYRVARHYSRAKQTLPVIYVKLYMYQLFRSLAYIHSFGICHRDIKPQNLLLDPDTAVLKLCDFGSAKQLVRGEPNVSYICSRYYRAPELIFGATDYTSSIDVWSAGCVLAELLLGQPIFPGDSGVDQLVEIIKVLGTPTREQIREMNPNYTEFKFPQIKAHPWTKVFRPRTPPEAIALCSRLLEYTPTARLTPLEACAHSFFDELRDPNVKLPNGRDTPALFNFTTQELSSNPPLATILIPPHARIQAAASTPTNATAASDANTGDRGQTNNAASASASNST
# hKDR = molecular target: T3, hKDR (Homo sapiens, UniProt P35968); assay: Cerep LANCE kinase assay hKDR (S1 assay 32); type: biochemical; conditions: read-out: KDR
# T3 construct: purchased Cerep (LANCE kinase assay platform, contract assay)
# T3 sequence (P35968 20-1356): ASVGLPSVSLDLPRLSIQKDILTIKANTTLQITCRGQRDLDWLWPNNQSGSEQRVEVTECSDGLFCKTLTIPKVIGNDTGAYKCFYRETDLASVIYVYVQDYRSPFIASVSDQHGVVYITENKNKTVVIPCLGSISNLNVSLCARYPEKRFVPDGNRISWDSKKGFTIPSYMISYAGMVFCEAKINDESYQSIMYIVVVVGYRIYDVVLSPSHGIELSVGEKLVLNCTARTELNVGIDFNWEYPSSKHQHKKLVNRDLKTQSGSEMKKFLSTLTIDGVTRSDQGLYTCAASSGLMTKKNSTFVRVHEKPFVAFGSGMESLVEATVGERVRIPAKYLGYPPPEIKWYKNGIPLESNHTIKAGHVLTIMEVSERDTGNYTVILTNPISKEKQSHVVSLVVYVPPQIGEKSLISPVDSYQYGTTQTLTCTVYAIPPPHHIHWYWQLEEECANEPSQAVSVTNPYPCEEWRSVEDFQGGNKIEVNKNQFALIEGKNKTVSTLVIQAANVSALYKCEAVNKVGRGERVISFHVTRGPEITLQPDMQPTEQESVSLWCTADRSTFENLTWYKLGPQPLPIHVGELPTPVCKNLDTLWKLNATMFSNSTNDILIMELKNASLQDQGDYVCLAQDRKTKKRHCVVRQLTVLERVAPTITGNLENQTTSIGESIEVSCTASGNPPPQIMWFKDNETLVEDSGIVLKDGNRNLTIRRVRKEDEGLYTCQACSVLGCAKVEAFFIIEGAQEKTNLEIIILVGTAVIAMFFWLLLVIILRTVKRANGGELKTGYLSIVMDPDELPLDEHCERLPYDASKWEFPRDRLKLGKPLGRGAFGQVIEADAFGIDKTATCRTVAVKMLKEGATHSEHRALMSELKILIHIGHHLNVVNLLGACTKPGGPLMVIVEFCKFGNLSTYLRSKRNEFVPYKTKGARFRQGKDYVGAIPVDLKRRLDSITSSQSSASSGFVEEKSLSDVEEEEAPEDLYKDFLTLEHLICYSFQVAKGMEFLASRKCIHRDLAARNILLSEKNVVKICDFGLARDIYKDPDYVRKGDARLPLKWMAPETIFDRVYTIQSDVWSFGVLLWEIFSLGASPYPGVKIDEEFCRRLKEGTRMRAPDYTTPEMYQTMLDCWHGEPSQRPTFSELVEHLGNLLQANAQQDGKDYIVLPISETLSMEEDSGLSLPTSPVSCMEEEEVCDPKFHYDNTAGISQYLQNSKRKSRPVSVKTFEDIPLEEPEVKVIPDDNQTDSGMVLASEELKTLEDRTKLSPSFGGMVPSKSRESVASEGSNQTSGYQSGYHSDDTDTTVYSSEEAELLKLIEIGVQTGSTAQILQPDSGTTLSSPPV
# hJAK2 = molecular target: T4, hJAK2 (Homo sapiens, UniProt O60674); assay: Cerep LANCE kinase assay hJAK2 (S1 assay 33); type: biochemical; conditions: read-out: JAK2
# T4 construct: purchased Cerep (LANCE kinase assay platform, contract assay)
# T4 sequence (O60674 whole entry): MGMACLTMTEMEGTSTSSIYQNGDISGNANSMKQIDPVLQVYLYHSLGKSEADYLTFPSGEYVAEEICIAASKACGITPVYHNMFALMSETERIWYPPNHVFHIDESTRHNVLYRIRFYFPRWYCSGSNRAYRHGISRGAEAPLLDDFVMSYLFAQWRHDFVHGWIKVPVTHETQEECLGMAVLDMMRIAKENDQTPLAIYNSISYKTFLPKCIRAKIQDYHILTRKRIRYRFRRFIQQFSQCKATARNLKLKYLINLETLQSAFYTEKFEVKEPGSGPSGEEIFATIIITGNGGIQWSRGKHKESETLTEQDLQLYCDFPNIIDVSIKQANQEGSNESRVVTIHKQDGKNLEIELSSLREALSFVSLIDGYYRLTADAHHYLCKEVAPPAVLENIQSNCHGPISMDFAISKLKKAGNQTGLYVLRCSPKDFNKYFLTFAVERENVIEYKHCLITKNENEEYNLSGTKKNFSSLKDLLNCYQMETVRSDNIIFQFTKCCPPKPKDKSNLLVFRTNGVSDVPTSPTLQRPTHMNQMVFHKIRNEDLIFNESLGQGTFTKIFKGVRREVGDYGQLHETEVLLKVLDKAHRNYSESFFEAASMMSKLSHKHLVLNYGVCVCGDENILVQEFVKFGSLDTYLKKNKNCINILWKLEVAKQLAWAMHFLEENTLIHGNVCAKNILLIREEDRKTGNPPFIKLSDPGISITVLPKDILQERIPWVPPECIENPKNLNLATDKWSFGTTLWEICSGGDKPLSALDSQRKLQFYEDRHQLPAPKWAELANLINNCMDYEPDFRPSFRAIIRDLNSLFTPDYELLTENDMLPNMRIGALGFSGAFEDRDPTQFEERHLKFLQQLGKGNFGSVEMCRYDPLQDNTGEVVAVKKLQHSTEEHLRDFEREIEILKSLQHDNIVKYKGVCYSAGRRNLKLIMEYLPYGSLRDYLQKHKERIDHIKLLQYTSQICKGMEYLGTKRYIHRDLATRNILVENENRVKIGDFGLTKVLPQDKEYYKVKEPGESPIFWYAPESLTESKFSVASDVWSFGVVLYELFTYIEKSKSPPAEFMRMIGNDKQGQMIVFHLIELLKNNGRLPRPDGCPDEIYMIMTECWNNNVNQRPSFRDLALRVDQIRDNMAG
# RKO = assay: cells; type: cell-based; conditions: Homo sapiens, RKO
# SNU-C1 = assay: cells; type: cell-based; conditions: Homo sapiens
# INS-1E cells = assay: cells; type: cell-based, rat
# [2] = system: HCT116 cells treated with a GSK3β inhibitor; assay: cells; type: cell-based; conditions: Homo sapiens
# hFLT3 = molecular target: T5, hFLT3 (Homo sapiens, UniProt P36888); assay: Cerep LANCE kinase assay hFLT3 (S1 assay 35); type: biochemical; conditions: read-out: FLT3
# T5 construct: purchased Cerep (LANCE kinase assay platform, contract assay)
# T5 sequence (P36888 27-993): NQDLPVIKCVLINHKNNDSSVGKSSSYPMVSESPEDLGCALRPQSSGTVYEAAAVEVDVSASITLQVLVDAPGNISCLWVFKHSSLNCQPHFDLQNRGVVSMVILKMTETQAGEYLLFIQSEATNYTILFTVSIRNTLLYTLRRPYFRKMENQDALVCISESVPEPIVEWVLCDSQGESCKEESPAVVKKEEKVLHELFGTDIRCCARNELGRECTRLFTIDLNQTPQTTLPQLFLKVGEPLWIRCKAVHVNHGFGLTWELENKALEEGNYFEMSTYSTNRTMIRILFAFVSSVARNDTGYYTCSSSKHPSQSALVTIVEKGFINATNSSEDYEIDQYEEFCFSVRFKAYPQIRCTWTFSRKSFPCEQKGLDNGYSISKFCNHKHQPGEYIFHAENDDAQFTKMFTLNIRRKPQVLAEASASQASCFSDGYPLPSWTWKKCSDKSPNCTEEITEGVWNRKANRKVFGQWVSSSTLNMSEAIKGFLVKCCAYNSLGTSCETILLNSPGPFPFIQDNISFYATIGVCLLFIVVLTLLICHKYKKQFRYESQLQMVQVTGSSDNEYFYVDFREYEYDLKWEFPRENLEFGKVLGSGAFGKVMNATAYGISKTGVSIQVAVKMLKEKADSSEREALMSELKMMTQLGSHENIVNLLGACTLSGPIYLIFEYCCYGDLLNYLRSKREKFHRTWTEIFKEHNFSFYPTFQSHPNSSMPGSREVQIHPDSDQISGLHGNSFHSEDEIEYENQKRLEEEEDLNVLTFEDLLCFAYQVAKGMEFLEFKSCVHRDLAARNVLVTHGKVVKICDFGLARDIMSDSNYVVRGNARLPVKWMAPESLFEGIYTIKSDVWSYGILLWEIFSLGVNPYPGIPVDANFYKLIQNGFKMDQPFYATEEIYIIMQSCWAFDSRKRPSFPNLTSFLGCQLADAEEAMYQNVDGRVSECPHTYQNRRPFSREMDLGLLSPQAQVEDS
# [3] = system: endothelial tube formation in co-cultures of ECFCs and ADSCs treated with VEGF; assay: cells; type: cell-based, human
# SW480 = assay: cells; type: cell-based
# [4] = Mus musculus, C2C12; read-out: Wnt pot. EC50
# [5] = Homo sapiens, NCI-H716; read-out: GLP1 sec. EC50
# [6] = Rattus norvegicus, INS-1E; read-out: Ins. sec. EC50
# [7] = HCT-116, read-out: HCT-116 (GSK3β) viab. IC50, Table 2, GSK3β inhibitor LY2090314 20 nM, 72 h, Cell TiterGlo, 20 coded
# [8] = HCT-116, GSK3b inhibitor pretreated, read-out: GSK3b inh pretreated_Viability ATP HCT116
# [9] = Homo sapiens, IC50 / EC50; endothelial tube area, ADSC/ECFC co-culture; read-out: Anti-Angiogenesis
# [10] = Homo sapiens; read-out: Anti-Angio IC50
# [11] = Homo sapiens, HeLa, read-out: CellCycle G2/M
# [12] = Mus musculus, C2C12, read-out: Wnt Pathway
# [13] = Homo sapiens, HCT-116, read-out: Basal_Viability ATP HCT116
# [14] = Homo sapiens, NCI-H716, read-out: GLP 1 Secretion
# [15] = Homo sapiens, DLD-1, read-out: Basal_Viability ATP DLD-1
# [16] = Homo sapiens, SW480, read-out: Basal_Viability ATP SW480
# [17] = Rattus norvegicus, INS-1E, read-out: Insulin Secretion
# [18] = HCT-116, read-out: GSK3b inh pretreated_Viability ATP HCT116
# [19] = Homo sapiens, read-out: Anti-Angiogenesis
Compound,IC50 (hp70S6K1 (RPS6KB1)) [nM],"EC50 [1, 4] [nM]",EC50 (NCI-H716 cells; [5]) [nM],IC50 (hGSK3b) [nM],IC50 (hKDR) [nM],IC50 (hJAK2) [nM],EC50 (INS-1E cells; [6]) [nM],"IC50 [2, 7] [nM]","IC50 [2, 8] [nM]",IC50 (hFLT3) [nM],"IC50 [3, 9] [nM]","IC50 [3, 10] [nM]",EC50 (HeLa cells; [11]) [nM],"EC50 [1, 12] [nM]",IC50 (HCT116; [13]) [nM],EC50 (NCI-H716 cells; [14]) [nM],IC50 (DLD-1; [15]) [nM],IC50 (SW480; [16]) [nM],EC50 (INS-1E cells; [17]) [nM],"IC50 [2, 18] [nM]",also measured
"CC(C)C[C@H](NC(=O)[C@H](CCc1ccccc1)NC(=O)CN1CCOCC1)C(=O)N[C@@H](Cc1ccccc1)C(=O)N[C@@H](CC(C)C)C(=O)[C@@]1(C)CO1 [carfilzomib, reference compound]",> 20000,15,> 10000,> 20000,> 20000,> 20000,> 10000,2,1.73,> 20000,20.4,20,,,,,,,,,"EC50 (HeLa cells; Homo sapiens, HeLa, IC50 / EC50; HeLa; read-out: CellCycle G2/M): > 10000 nM; EC50 ([1]; Mus musculus, C2C12, IC50 / EC50; C2C12 beta-catenin translocation; read-out: Wnt Pathway): 15.2 nM; IC50 (HCT116; Homo sapiens, HCT-116, 72 h, read-out: HCT-116 viab. IC50, Table 2; basal; 72 h, Cell TiterGlo, non-adherent; 20 coded): 6 nM; IC50 (HCT116; Homo sapiens, HCT-116, basal; read-out: Basal_Viability ATP HCT116): 5.58 nM; IC50 (HT-29; Table 2, 72 h, Cell TiterGlo, non-adherent, 20 coded, read-out: HT-29 viab. IC50): 3 nM; IC50 (HT-29; read-out: Basal_Viability ATP HT-29): 3.18 nM; IC50 (DLD-1; Homo sapiens, DLD-1, 72 h, Table 2; 72 h, Cell TiterGlo, non-adherent; 20 coded; read-out: DLD-1 viab. IC50): 7 nM; IC50 (DLD-1; Homo sapiens, DLD-1, basal; read-out: Basal_Viability ATP DLD-1): 6.96 nM; IC50 (RKO; Table 2, 72 h, Cell TiterGlo, non-adherent, 20 coded, read-out: RKO viab. IC50): 4 nM; IC50 (RKO; read-out: Basal_Viability ATP RKO): 3.94 nM; IC50 (SNU-C1; SNU-C1, 72 h, Table 2, 72 h, Cell TiterGlo, non-adherent, 20 coded, read-out: SNU-C1 viab. IC50): 1 nM; IC50 (SNU-C1; SNU-C1, basal, read-out: Basal_Viability ATP SNU-C1): 1.47 nM"
CC[C@@H]([C@H](C)O)n1ncn(-c2ccc(N3CCN(c4ccc(OC[C@@H]5CO[C@@](Cn6cncn6)(c6ccc(F)cc6F)C5)cc4)CC3)cc2)c1=O [posaconazole],> 20000,,,> 20000,> 20000,> 20000,,,,> 20000,,,> 10000,1630,6240,> 10000,> 20000,5810,> 10000,> 20000,"IC50 [3, 19]: 6460 nM"
"CCc1nc(N)nc(N)c1-c1ccc(Cl)cc1 [pyrimethamine, reference compound]",,,,,,,,,,,,,> 10000,67.7,18200,,,12500,,,"IC50 (hp70S6K1 (RPS6KB1); kinase assay): > 20000 nM; EC50 ([1]; Mus musculus, C2C12, read-out: Wnt pot. EC50): 68 nM; IC50 (HCT116; Homo sapiens, HCT-116, 72 h, read-out: HCT-116 viab. IC50): 18200 nM; EC50 (NCI-H716 cells; Homo sapiens, NCI-H716, read-out: GLP1 sec. EC50): > 10000 nM; IC50 (DLD-1; Homo sapiens, DLD-1, 72 h, read-out: DLD-1 viab. IC50): > 20000 nM; IC50 (SW480; Homo sapiens, SW480, 72 h, read-out: SW480 viab. IC50): 12500 nM; IC50 (hGSK3b; kinase assay): > 20000 nM; IC50 (hKDR; kinase assay): > 20000 nM; IC50 (hJAK2; kinase assay): > 20000 nM; EC50 (INS-1E cells; Rattus norvegicus, INS-1E, read-out: Ins. sec. EC50): > 10000 nM; IC50 ([2]; HCT-116, 72 h, read-out: HCT-116 (GSK3β) viab. IC50): > 20000 nM; IC50 (hFLT3; kinase assay): > 20000 nM; IC50 ([3]; Homo sapiens, read-out: Anti-Angio IC50): > 10000 nM"
"C=C(C)[C@H]1Cc2c(ccc3c2O[C@@H]2COc4cc(OC)c(OC)cc4[C@@H]2C3=O)O1 [rotenone, reference compound]",> 20000,250,> 10000,> 20000,> 20000,> 20000,> 10000,67,66.7,> 20000,25.7,26,,,,,,,,,"G2/M IC50 / EC50 (HeLa cells): 310 nM; EC50 (HeLa cells; Homo sapiens; IC50 / EC50; HeLa; read-out: CellCycle G2/M): 311 nM; EC50 ([1]; Mus musculus; IC50 / EC50; C2C12 beta-catenin translocation; read-out: Wnt Pathway): 254 nM; IC50 (HCT116; Homo sapiens, HCT-116, read-out: HCT-116 viab. IC50; Table 2; basal; 72 h, Cell TiterGlo, non-adherent; 20 coded): 1200 nM; IC50 (HCT116; Homo sapiens, HCT-116; read-out: Basal_Viability ATP HCT116): 1180 nM; IC50 (DLD-1; Homo sapiens, DLD-1; Table 2; 72 h, Cell TiterGlo, non-adherent; 20 coded; read-out: DLD-1 viab. IC50): 350 nM; IC50 (DLD-1; Homo sapiens, DLD-1; read-out: Basal_Viability ATP DLD-1): 350 nM; IC50 (SW480; Homo sapiens, SW480; Table 2; 72 h, Cell TiterGlo, non-adherent; 20 coded; read-out: SW480 viab. IC50): 160 nM; IC50 (SW480; Homo sapiens, SW480; read-out: Basal_Viability ATP SW480): 162 nM"
CC[C@]1(O)C[C@H]2CN(CCc3c([nH]c4ccccc34)[C@@](C(=O)OC)(c3cc4c(cc3OC)N(C=O)[C@H]3[C@@](O)(C(=O)OC)[C@H](OC(C)=O)[C@]5(CC)C=CCN6CC[C@]43[C@@H]65)C2)C1 [vincristine],> 20000,,,> 20000,> 20000,> 20000,,,,> 20000,,,5.9,4,126,> 10000,786,3080,> 10000,66.7,"IC50 [3, 19]: 6.5 nM"
